{
  "source": "patent US20240226048A1",
  "about": "“METHODS OF TREATMENT USING BEMPEDOIC ACID” (Esperion Therapeutics, Inc., priority 2023, published 2024)",
  "assay": "CLEAR OUTCOMES trial: adverse events and safety laboratory findings",
  "format": "in vivo, human",
  "details": "for Any muscle disorder, %: prespecified adverse event of special interest",
  "excerpt": "The CLEAR OUTCOMES trial was a randomized, placebo-controlled, double-blind trial that enrolled patients at 1250 sites in 32 countries. An independent Data Monitoring Committee reviewed safety and efficacy data during the trial. Patients 18 to 85 years of age were eligible for enrollment if they met either of two criteria for increased cardiovascular risk, a prior cardiovascular event (secondary prevention) or clinical features that placed them at high risk for a cardiovascular event (primary prevention). (Nicholls […], Bays H E, et al. Rationale and design of the CLEAR-outcomes trial: Evaluating the effect of bempedoic acid on cardiovascular events in patients with statin intolerance. Am Heart J. 2021 May; 235: 104-112) All patients provided written informed consent. Patients had to report statin intolerance due to an adverse effect that started or increased during statin therapy and resolved or improved after statin therapy was discontinued. Patients could be enrolled if they tolerated a very low average daily statin dose (e.g., an average daily dose of rosuvastatin <5 mg, atorvastatin <10 mg, simvastatin <10 mg, lovastatin <20 mg, pravastatin <40 mg, fluvastatin <40 mg, or pitavastatin <2 mg). Other lipid-lowering therapies were permitted, including ezetimibe, niacin, bile acid resins, fibrates, and/or proprotein convertase subtilisin kexin type 9 (PCSK9) inhibitors. Full inclusion and exclusion criteria are provided in Nicholls et al. (Am Heart J. 2021). Eligible patients entered a 4-week run-in period during which patients were treated with single-blind placebo. If patients were intolerant to placebo treatment or if adherence was <80% by tablet count, they were not eligible for randomization. […] Beginning 6 months after enrollment, the central laboratory notified the investigator if the patient's LDL-cholesterol level was ≥25% higher than baseline. These patients were counseled on healthy dietary guidelines and reminded to take all lipid-regulating medications. If repeat testing confirmed that LDL-cholesterol value met the threshold criteria, the provider could adjust the lipid-lowering treatment regimen per standard of care and local guidelines.",
  "key": {"[1]": {"details": "N = 7001, listed as bempedoic acid"}, "[2]": {"details": "at any visit, repeated and confirmed, N = 7001"}},
  "data": [
    {"compound": "CC(C)(CCCCCC(O)CCCCCC(C)(C)C(=O)O)C(=O)O", "note": "[Bempedoic Acid, Bempedoic acid]", "values": [
      {"measurement": "Adverse event leading to drug discontinuation, %", "setting": "180 mg oral daily, N = 7001", "value": "(11.0) %"},
      {"measurement": "Any treatment emergent adverse event, %", "setting": "180 mg oral daily, N = 7001", "value": "(86.3) %"},
      {"measurement": "Serious treatment emergent adverse event, %", "setting": "180 mg oral daily, N = 7001", "value": "(25.4) %"},
      {"measurement": "Adjudicated tendon rupture, %", "setting": "N = 7001", "value": "(1.2) %"},
      {"measurement": "Atrial fibrillation, %", "setting": "N = 7001", "value": "(3.3) %"},
      {"measurement": "Cholelithiasis, %", "setting": "N = 7001", "value": "(2.2) %"},
      {"measurement": "Discontinuation of treatment due to myalgia, %", "setting": "N = 7001", "value": "(1.8) %"},
      {"measurement": "Elevated hepatic enzymes, %", "setting": "N = 7001", "value": "(4.5) %"},
      {"measurement": "Gout, %", "setting": "N = 7001", "value": "(3.1) %"},
      {"measurement": "Hyperuricemia, %", "setting": "N = 7001", "value": "(10.9) %"},
      {"measurement": "Hypoglycemia, %", "setting": "N = 7001", "value": "(4.3) %"},
      {"measurement": "Malignancies, %", "setting": "N = 7001", "value": "(4.7) %"},
      {"measurement": "Metabolic acidosis, %", "setting": "N = 7001", "value": "(0.2) %"},
      {"measurement": "Myalgia, %", "setting": "N = 7001", "value": "(5.6) %"},
      {"measurement": "Neurocognitive disorders, %", "setting": "N = 7001", "value": "(0.8) %"},
      {"measurement": "Renal impairment, %", "setting": "N = 7001", "value": "(11.5) %"},
      {"measurement": "Tendinopathies, %", "setting": "N = 7001", "value": "(1.7) %"},
      {"measurement": "Cholelithiasis, %", "setting": "[1]", "value": 2.2, "unit": "%"},
      {"measurement": "Elevated hepatic enzymes, %", "setting": "[1]", "value": 4.5, "unit": "%"},
      {"measurement": "Gout, %", "setting": "[1]", "value": 3.1, "unit": "%"},
      {"measurement": "Hyperuricemia, %", "setting": "[1]", "value": 10.9, "unit": "%"},
      {"measurement": "Renal impairment, %", "setting": "[1]", "value": 11.5, "unit": "%"},
      {"measurement": "Change from baseline in creatinine levels", "setting": "after 6 months, mean", "value": 0.05, "unit": "mg/dL"},
      {"measurement": "Change from baseline in uric acid levels", "setting": "after 6 months, mean", "value": 0.76, "unit": "mg/dL"},
      {"measurement": "Change from baseline in glycated hemoglobin level (%)", "setting": "after 12 months, not a prespecified safety measure", "value": 0.04, "unit": "%"},
      {"measurement": "Creatine kinase levels >5x ULN (repeated and confirmed), %", "setting": "at any visit, N = 7001", "value": "(0.1) %"},
      {"measurement": "Creatine kinase levels >5x ULN (single occurrence), %", "setting": "at any visit, N = 7001", "value": "(0.6) %"},
      {"measurement": "Alanine aminotransferase level >3 times ULN, %", "setting": "[2]", "value": "(1.2) %"},
      {"measurement": "Aspartate aminotransferase level >3 times ULN, %", "setting": "[2]", "value": "(1.1) %"},
      {"measurement": "tolerability of treatment", "setting": "discontinuation rates similar to placebo", "value": "well tolerated"},
      {"measurement": "Worsening hyperglycemia, %", "setting": "in patients with diabetes at baseline", "value": "(22.7) %"},
      {"measurement": "Mean changes in creatinine and uric acid from baseline compared with placebo", "setting": "in vivo", "value": "larger"},
      {"measurement": "New onset diabetes in patients with normoglycemia at baseline, %", "setting": "in vivo", "value": "(5.5) %"},
      {"measurement": "New onset diabetes in patients with pre-diabetes at baseline, %", "setting": "in vivo", "value": "(19.5) %"},
      {"measurement": "New onset diabetes in patients without diabetes at baseline, %", "setting": "in vivo", "value": "(16.1) %"},
      {"measurement": "Rates of liver transaminase elevations >3×ULN compared with placebo", "setting": "in vivo", "value": "more frequent"},
      {"measurement": "Any muscle disorder, %", "setting": "N = 7001", "value": "(15.0) %"},
      {"measurement": "Any muscle disorder, %", "setting": "[1]", "value": 15.0, "unit": "%"},
      {"measurement": "between group differences in overall rates of adverse events, serious adverse events, or adverse events leading to drug discontinuation", "setting": "vs placebo", "value": "not clinically meaningful between group differences"},
      {"measurement": "other prespecified adverse events of special interest (diabetes, hypoglycemia, metabolic acidosis, neurocognitive disorders, atrial fibrillation, tendinopathies, malignancies)", "setting": "vs placebo", "value": "no differences"}
    ]}
  ]
}
